Experiments:
[1] = test system: barnyardgrass; test: Test A preemergence; format: in vivo, Echinochloa crus-galli; settings: Preemergence, 1000 g ai/ha; 0 to 100 scale, 0 no effect, 100 complete control
Outline: (§1)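 Visual injury rating, 0–100 (0 no effect, 100 complete control), vs untreated controls ~10 days after treatment in greenhouse. Pre: directed soil spray on seeded loam/sand. Post: 2–10 cm plants, 1–2 leaf stage. Formulation: non-phytotoxic solvent mix + surfactant.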

[2] = test system: crabgrass, large; test: Test A preemergence; format: in vivo, Digitaria sanguinalis; settings: Preemergence, 1000 g ai/ha; 0 to 100 scale, 0 no effect, 100 complete control
Outline: as §1

[3] = test system: foxtail, giant; test: Test A preemergence; format: in vivo, Setaria faberii; settings: Preemergence, 1000 g ai/ha; 0 to 100 scale, 0 no effect, 100 complete control
Outline: as §1

[4] = test system: morningglory; test: Test A preemergence; format: in vivo, Ipomoea spp.; settings: Preemergence, 1000 g ai/ha; 0 to 100 scale, 0 no effect, 100 complete control
Outline: as §1

[5] = test system: pigweed; test: Test A preemergence; format: in vivo, Amaranthus retroflexus; settings: Preemergence, 1000 g ai/ha; 0 to 100 scale, 0 no effect, 100 complete control
Outline: as §1

[6] = test system: velvetleaf; test: Test A preemergence; format: in vivo, Abutilon theophrasti; settings: Preemergence, 1000 g ai/ha; 0 to 100 scale, 0 no effect, 100 complete control
Outline: as §1

[7] = test system: wheat; test: Test A preemergence; format: in vivo, Triticum aestivum; settings: Preemergence, 1000 g ai/ha; 0 to 100 scale, 0 no effect, 100 complete control
Outline: as §1

[8] = test system: corn; test: Test A preemergence; format: in vivo, Zea mays; settings: Preemergence, 1000 g ai/ha; 0 to 100 scale, 0 no effect, 100 complete control
Outline: as §1

[9] = test system: barnyardgrass; test: Test A postemergence; format: in vivo, Echinochloa crus-galli; settings: Postemergence, 1000 g ai/ha; visual rating after approx. 10 days, 0 to 100 scale (0 no effect, 100 complete control)
Outline: as §1

[10] = test system: crabgrass, large; test: Test A postemergence; format: in vivo, Digitaria sanguinalis; settings: Postemergence, 1000 g ai/ha; visual rating after approx. 10 days, 0 to 100 scale (0 no effect, 100 complete control)
Outline: as §1

[11] = test system: foxtail, giant; test: Test A postemergence; format: in vivo, Setaria faberii; settings: Postemergence, 1000 g ai/ha; visual rating after approx. 10 days, 0 to 100 scale (0 no effect, 100 complete control)
Outline: as §1

[12] = test system: morningglory; test: Test A postemergence; format: in vivo, Ipomoea spp.; settings: Postemergence, 1000 g ai/ha; visual rating after approx. 10 days, 0 to 100 scale (0 no effect, 100 complete control)
Outline: as §1

[13] = test system: pigweed; test: Test A postemergence; format: in vivo, Amaranthus retroflexus; settings: Postemergence, 1000 g ai/ha; visual rating after approx. 10 days, 0 to 100 scale (0 no effect, 100 complete control)
Outline: as §1

[14] = test system: velvetleaf; test: Test A postemergence; format: in vivo, Abutilon theophrasti; settings: Postemergence, 1000 g ai/ha; visual rating after approx. 10 days, 0 to 100 scale (0 no effect, 100 complete control)
Outline: as §1

[15] = test system: wheat; test: Test A postemergence; format: in vivo, Triticum aestivum; settings: Postemergence, 1000 g ai/ha; visual rating after approx. 10 days, 0 to 100 scale (0 no effect, 100 complete control)
Outline: as §1

[16] = test system: corn; test: Test A postemergence; format: in vivo, Zea mays; settings: Postemergence, 1000 g ai/ha; visual rating after approx. 10 days, 0 to 100 scale (0 no effect, 100 complete control)
Outline: as §1

[17] = test system: rice; test: Test C flooded paddy test; format: in vivo, Oryza sativa; settings: Flood
Source text: (§2) At time of treatment, test pots were flooded to 3 cm above the soil surface, treated by application of test compounds directly to the paddy water, and then maintained at that water depth for the duration of the test. Treated plants and controls were maintained in a greenhouse for 13 to 15 days, after which time all species were compared to controls and visually evaluated. […] A dash (-) response means no test result.

[18] = test system: sedge, umbrella; test: Test C flooded paddy test; format: in vivo, Cyperus difformis; settings: Flood
Source text: as §2

[19] = test system: ducksalad; test: Test C flooded paddy test; format: in vivo, Heteranthera limosa; settings: Flood
Source text: as §2

[20] = test system: barnyardgrass; test: Test C flooded paddy test; format: in vivo, Echinochloa crus-galli; settings: Flood
Source text: as §2

[21] = 31 g ai/ha, scale 0 to 100 (0 no effect, 100 complete control)
[22] = 62 g ai/ha, scale 0 to 100 (0 no effect, 100 complete control)

Row | SMILES | Barnyardgrass plant response rating [1] | Crabgrass, Large plant response rating [2] | Foxtail, Giant plant response rating [3] | Morningglory plant response rating [4] | Pigweed plant response rating [5] | Velvetleaf plant response rating [6] | Wheat plant response rating [7] | Corn plant response rating [8] | Barnyardgrass plant response rating [9] | Crabgrass, Large plant response rating [10] | Foxtail, Giant plant response rating [11] | Morningglory plant response rating [12] | Pigweed plant response rating [13] | Velvetleaf plant response rating [14] | Wheat plant response rating [15] | Corn plant response rating [16] | Plant response rating, Rice [17, 21] | Plant response rating, Rice [17, 22] | Plant response rating, Rice ([17]; 125 g ai/ha, scale 0 to 100) | Plant response rating, Rice ([17]; 250 g ai/ha, scale 0 to 100) | also measured
1 | CCCc1cc(C(=O)NCC)nn1Cc1cccc(C(F)(F)F)c1 [Compound 29] | 50 | 100 | 80 | 60 | 90 | 40 | 10 | 0 | 80 | 70 | 90 | 90 | 100 | 100 | 40 | 50 | 0 | 0 | 0 | 0 | Plant response rating, Sedge, Umbrella [18, 21]: 0; Plant response rating, Sedge, Umbrella [18, 22]: 0; Plant response rating, Sedge, Umbrella ([18]; 125 g ai/ha, scale 0 to 100): 75; Plant response rating, Sedge, Umbrella ([18]; 250 g ai/ha, scale 0 to 100): 80; Plant response rating, Ducksalad [19, 21]: 0; Plant response rating, Ducksalad [19, 22]: 0; Plant response rating, Ducksalad ([19]; 125 g ai/ha, scale 0 to 100): 85; Plant response rating, Ducksalad ([19]; 250 g ai/ha, scale 0 to 100): 85; Plant response rating, Barnyardgrass [20, 21]: 0; Plant response rating, Barnyardgrass [20, 22]: 0; Plant response rating, Barnyardgrass ([20]; 125 g ai/ha, scale 0 to 100): 0; Plant response rating, Barnyardgrass ([20]; 250 g ai/ha, scale 0 to 100): 20
2 | CCCc1cc(C(=O)NC2CC2)nn1Cc1cccc(C(F)(F)F)c1 [Compound 30] | 90 | 100 | 100 | 60 | 30 | 30 | 10 | 20 | 70 | 90 | 100 | 100 | 100 | 100 | 40 | 40 | 0 | 0 | 0 | 0 | Plant response rating, Sedge, Umbrella [18, 21]: 0; Plant response rating, Sedge, Umbrella [18, 22]: 0; Plant response rating, Sedge, Umbrella ([18]; 125 g ai/ha, scale 0 to 100): 0; Plant response rating, Sedge, Umbrella ([18]; 250 g ai/ha, scale 0 to 100): 80; Plant response rating, Ducksalad [19, 21]: 60; Plant response rating, Ducksalad ([19]; 125 g ai/ha, scale 0 to 100): 80; Plant response rating, Ducksalad ([19]; 250 g ai/ha, scale 0 to 100): 100; Plant response rating, Barnyardgrass [20, 21]: 0; Plant response rating, Barnyardgrass [20, 22]: 0; Plant response rating, Barnyardgrass ([20]; 125 g ai/ha, scale 0 to 100): 0; Plant response rating, Barnyardgrass ([20]; 250 g ai/ha, scale 0 to 100): 20
3 | CCCc1cc(C(=O)NCC(F)(F)F)nn1Cc1cccc(C(F)(F)F)c1 [Compound 31] | 50 | 100 | 100 | 40 | 90 | 50 | 10 | 10 | 60 | 60 | 70 | 100 | 100 | 100 | 30 | 20 | 0 | 0 | 0 | 15 | Plant response rating, Sedge, Umbrella [18, 21]: 30; Plant response rating, Sedge, Umbrella [18, 22]: 70; Plant response rating, Sedge, Umbrella ([18]; 125 g ai/ha, scale 0 to 100): 85; Plant response rating, Sedge, Umbrella ([18]; 250 g ai/ha, scale 0 to 100): 85; Plant response rating, Barnyardgrass [20, 21]: 0; Plant response rating, Barnyardgrass [20, 22]: 0; Plant response rating, Barnyardgrass ([20]; 125 g ai/ha, scale 0 to 100): 0; Plant response rating, Barnyardgrass ([20]; 250 g ai/ha, scale 0 to 100): 20
